How the values were obtained:
[1] = tested on: CSK; assay: KINOMEscan; type: binding; details: 1000 nM
[2] = tested on: FRK; assay: KINOMEscan; type: binding; details: 1000 nM
[3] = tested on: JAK3(JH1domain-catalytic); assay: KINOMEscan; type: binding; details: 1000 nM
[4] = tested on: ALK(L1196M); assay: KINOMEscan; type: binding; details: 1000 nM
[5] = tested on: MKNK1; assay: KINOMEscan; type: binding; details: 1000 nM
[6] = tested on: EGFR(L747-S752del, P753S); assay: KINOMEscan; type: binding; details: 1000 nM
[7] = tested on: GRK1; assay: KINOMEscan; type: binding; details: 1000 nM
[8] = tested on: TSSK1B; assay: KINOMEscan; type: binding; details: 1000 nM
[9] = tested on: ROS1; assay: KINOMEscan; type: binding; details: 1000 nM
[10] = tested on: ABL2; assay: KINOMEscan; type: binding; details: 1000 nM
[11] = tested on: STK39; assay: KINOMEscan; type: binding; details: 1000 nM
[12] = tested on: PIK3CA(H1047L); assay: KINOMEscan; type: binding; details: 1000 nM
[13] = tested on: MINK; assay: KINOMEscan; type: binding; details: 1000 nM
[14] = tested on: MAPKAPK2; assay: KINOMEscan; type: binding; details: 1000 nM
[15] = tested on: SRPK1; assay: KINOMEscan; type: binding; details: 1000 nM
[16] = tested on: ARK5; assay: KINOMEscan; type: binding; details: 1000 nM
[17] = tested on: PKN1; assay: KINOMEscan; type: binding; details: 1000 nM
[18] = tested on: ZAP70; assay: KINOMEscan; type: binding; details: 1000 nM
[19] = tested on: ABL1(F317I)-phosphorylated; assay: KINOMEscan; type: binding; details: 1000 nM
[20] = tested on: IKK-beta; assay: KINOMEscan; type: binding; details: 1000 nM
[21] = tested on: EGFR(L747-E749del, A750P); assay: KINOMEscan; type: binding; details: 1000 nM
[22] = tested on: OSR1; assay: KINOMEscan; type: binding; details: 1000 nM
[23] = tested on: MLK3; assay: KINOMEscan; type: binding; details: 1000 nM
[24] = tested on: RET(M918T); assay: KINOMEscan; type: binding; details: 1000 nM
[25] = tested on: MET(M1250T); assay: KINOMEscan; type: binding; details: 1000 nM
[26] = tested on: BMPR2; assay: KINOMEscan; type: binding; details: 1000 nM
[27] = tested on: MAP3K2; assay: KINOMEscan; type: binding; details: 1000 nM
[28] = tested on: LOK; assay: KINOMEscan; type: binding; details: 1000 nM
[29] = tested on: TRKA; assay: KINOMEscan; type: binding; details: 1000 nM
[30] = tested on: CDK3; assay: KINOMEscan; type: binding; details: 1000 nM
[31] = tested on: PFTK1; assay: KINOMEscan; type: binding; details: 1000 nM
[32] = tested on: PRKG1; assay: KINOMEscan; type: binding; details: 1000 nM
[33] = tested on: FER; assay: KINOMEscan; type: binding; details: 1000 nM
[34] = tested on: TIE2; assay: KINOMEscan; type: binding; details: 1000 nM
[35] = tested on: CSNK1G3; assay: KINOMEscan; type: binding; details: 1000 nM
[36] = tested on: HIPK4; assay: KINOMEscan; type: binding; details: 1000 nM
[37] = tested on: CAMK1B; assay: KINOMEscan; type: binding; details: 1000 nM
[38] = tested on: DLK; assay: KINOMEscan; type: binding; details: 1000 nM
[39] = tested on: CDKL5; assay: KINOMEscan; type: binding; details: 1000 nM
[40] = tested on: BTK Y223 autophosphorylation; assay: signaling pathway western blot in TMD8, REC-1 and DOHH2 cells; type: cell-based; details: 4 h
From the text: The cells were then washed in PBS and lysed in cell lysis buffer. BTK, Phospho-BTK(Tyr223), PLCγ2, Phospho-PLCγ2 (Tyr1217), Phospho-AKT […], Phospho-NF-κB p65(Ser536), ERK, Phospho-p44/42MAPK (ERK1/2) (Thr202/Tyr204), AKT and GAPDH antibody (Cell signaling Technology) were used for immunoblotting.

[41] = tested on: FLT3(D835V); assay: KINOMEscan; type: binding; details: 1000 nM
[42] = tested on: BMPR1A; assay: KINOMEscan; type: binding; details: 1000 nM
[43] = tested on: CAMKK1; assay: KINOMEscan; type: binding; details: 1000 nM
[44] = tested on: PIK3C2G; assay: KINOMEscan; type: binding; details: 1000 nM
[45] = rat 14-day dose escalation subacute toxicity study; type: in vivo; details: rats, up to 800 mg/kg/day, continuous 14 days
Protocol: The subacute toxicity study of CHMFL-BTK-85 was conducted on SD rats, 200g in weight and five weeks in age. All mice were purchased from Gempharmatech Co., Ltd (Nanjing, China). All animals were housed in a specific pathogen-free facility and used according to the animal care regulations of Hefei Institutes of Physical Science Chinese Academy of Sciences. CHMFL-BTK-85 was delivered daily in a HKI solution (0.5% Methocellulose/0.4% Tween 80 in ddH2O) by orally gavage. Body weight was measured daily after CHMFL-BTK-85 treatment.

[46] = tested on: AKT2; assay: KINOMEscan; type: binding; details: 1000 nM
[47] = tested on: GRK4; assay: KINOMEscan; type: binding; details: 1000 nM

With `C=CC(=O)Nc1cc(Nc2cc(-c3cccc(NC(=O)c4cc5c(s4)CCCC5)c3C)cn(C)c2=O)ccc1N1CCN(CC)CC1` [CHMFL-BTK-85] the “Percent Control” value [1] was 80%, the “Percent Control” value [2] was 19% and the “Percent Control” value [3] was 80%. For the same compound, the “Percent Control” value [4] was 100%, the “Percent Control” value [5] was 100% and the “Percent Control” value [6] was 100%. The “Percent Control” value [7] was 84%, the “Percent Control” value [8] was 88% and the “Percent Control” value [9] was 98%. The “Percent Control” value [10] was 88%, the “Percent Control” value [11] was 100% and the “Percent Control” value [12] was 100%. The “Percent Control” value [13] was 88%, the “Percent Control” value [14] was 86% and the “Percent Control” value [15] was 100%. The “Percent Control” value [16] was 97%, the “Percent Control” value [17] was 70% and the “Percent Control” value [18] was 100%. For the same compound, the “Percent Control” value [19] was 100%, the “Percent Control” value [20] was 100% and the “Percent Control” value [21] was 57%. The “Percent Control” value [22] was 100%, the “Percent Control” value [23] was 91% and the “Percent Control” value [24] was 78%. For the same compound, the “Percent Control” value [25] was 95%, the “Percent Control” value [26] was 100% and the “Percent Control” value [27] was 100%. For the same compound, the “Percent Control” value [28] was 100%, the “Percent Control” value [29] was 86% and the “Percent Control” value [30] was 86%. For the same compound, the “Percent Control” value [31] was 80%, the “Percent Control” value [32] was 93% and the “Percent Control” value [33] was 83%. The “Percent Control” value [34] was 84%, the “Percent Control” value [35] was 100% and the “Percent Control” value [36] was 91%. For the same compound, the “Percent Control” value [37] was 100%, the “Percent Control” value [38] was 100% and the “Percent Control” value [39] was 100%. For the same compound, the “concentration blocking BTK Y223 autophosphorylation” value [40] was under 10 nM, the “Percent Control” value [41] was 11% and the “Percent Control” value [42] was 97%. For the same compound, the “Percent Control” value [43] was 75%, the “Percent Control” value [44] was 63% and the “tolerability in dose escalation study” value [45] was “well tolerated”. For the same compound, the “Percent Control” value [46] was 88% and the “Percent Control” value [47] was 88%.
